“Also recorded” adds a separate entry of the source.

The text below walks through data of article PMC12693327, “SERAAK2 as a Serotonin Receptor Ligand: Structural and Pharmacological In Vitro and In Vivo Evaluation” (Molecules, 2025).

In data set [1] the test system is mice. The data set can be described thus: Passive avoidance (PA) task, memory consolidation. It counts as in vivo. The conditions noted are these: 7.5 mg/kg, retention phase, vs vehicle control. The method, then: (§1) The investigated compound (SER2AAK2) was bought from Enamine (purity over 95%) and in all tests was administered intraperitoneally (i.p.), spread in a drop of Tween 80, and diluted with an aqueous solution of 0.5% methylcellulose (tylose) and injected 60 min before the tests in a volume of 10 mL/kg. Control groups received tylose injections of the same volume and via the same route of administration.
The passive avoidance (PA) task measures a long-term memory, as it was reported by Venault et al.. The PA apparatus consists of a two-compartment acrylic box, one illuminated with fluorescent light (8 W) (10 cm × 13 cm × 15 cm) and another darkened (25 cm × 20 cm × 15 cm), connected by a guillotine door. Entrance of the animal to the darkened box was punished by an electric foot shock (0.15 mA for 2 s). The PA procedure was previously described. In particular, on the first day of the experiment [i.e., training (pre-test)], mice were placed individually into the illuminated compartment and allowed to explore this box. […] The latency time for entering the darkened compartment was recorded (TL1). […] The results were expressed as the latency index (LI), calculated by the following formula: TL1−TL2/TL1 where TL1 is the time needed to move to the dark compartment during a training session and TL2 is the time needed to re-enter the dark compartment, measured 24 h after TL1 (retention).

A further data set addresses CYP2D6 (Homo sapiens, UniProt P10635). Briefly: CYP2D6 luminescent assay (Glo kit). The method, then:
The inhibitory potential of the compound against the CYP2D6 isoform was evaluated employing a methodology analogous to the CYP3A4 assay, albeit with a different set of reference compounds.
The effect of SERAAK2 on the activity of the cytochrome P450 isoforms CYP3A4 and CYP2D6 was tested using commercial luminescence assays (Glo kits bought from Promega, Medison, WI, USA). The experiment was performed twice with triplicate samples, following the manufacturer’s guidelines and established procedures.

Data set [2] relates to mice. Briefly: Forced swim test (FST). The class given is in vivo. The conditions noted are these: 7.5 mg/kg i.p., 60 min before test. Here is the method:
as §1
The study was carried out using the test proposed by R. Porsolt. The method is based on the observation of an animal forced to swim in a confined space from which there is no escape. After an initial period of vigorous attempts to get out, the animal finally gives up on escaping. The test consists of immersing the mouse individually in a cylindrical beaker (diameter 10 cm, height 25 cm) filled with water (at a temperature of 23–25 °C) at a height of 10 cm for 6 min. The immobility time was measured during the final 4 min of the test (between 2 and 6 min).

The subject of data set [3] is mice. The data set can be described thus: Motor coordination, rotarod test. The class given is in vivo. The settings on record: for Motor coordination (rotarod, chimney): rotarod and chimney. Here is the method:
as §1
The effects of the SER2AAK2 compound were also measured in the rotarod and chimney tests. In the rotarod test, mice were evaluated for their ability to maintain balance on a constantly rotating rod (18 rpm) for 1 min. The chimney test involved placing a mouse in a horizontal polymer tube (3 cm diameter, 25 cm length). Once the mouse reached the far end, the tube was positioned vertically, requiring the animal to climb backwards to exit. Right motor coordination was defined as exiting the chimney within 60 s. Prior to testing, mice underwent a 3-day training. Only those animals that were able to stay on the rotating rod or leave the chimney within the required time were included in the study.
In general terms: The rotarod test checks motor coordination on a turning rod.

The target in data set [4] is serotonin 5-HT2A receptor. Set-up: method as in PMID 38619283. The conditions noted are these: cited from earlier work.
The subject of data set [5] is mice. Briefly: Elevated plus maze (EPM) test. The class given is in vivo. The method, then:
as §1
Anxiety behaviors were measured using the EPM test according to the Lister method. The apparatus consisted of four black-painted arms arranged in a plus-shaped configuration with a central platform (5 × 5 cm). Two opposing arms were open (30 × 5 cm), while the other two were enclosed (30 × 5 × 15 cm). The maze was elevated 38.5 cm above the floor and illuminated with dim, diffuse red light. Experiments were conducted in a quiet, dark room. […] The following parameters were recorded: time spent in the open arms, number of entries into the open arms, and total number of entries into both types of arms.

In a further data set the target is 5-HT7 receptor. Set-up: method as in PMID 38619283. The conditions noted are these: cited from earlier work.

CYP2D6, sequence (P10635 whole entry, canonical isoform): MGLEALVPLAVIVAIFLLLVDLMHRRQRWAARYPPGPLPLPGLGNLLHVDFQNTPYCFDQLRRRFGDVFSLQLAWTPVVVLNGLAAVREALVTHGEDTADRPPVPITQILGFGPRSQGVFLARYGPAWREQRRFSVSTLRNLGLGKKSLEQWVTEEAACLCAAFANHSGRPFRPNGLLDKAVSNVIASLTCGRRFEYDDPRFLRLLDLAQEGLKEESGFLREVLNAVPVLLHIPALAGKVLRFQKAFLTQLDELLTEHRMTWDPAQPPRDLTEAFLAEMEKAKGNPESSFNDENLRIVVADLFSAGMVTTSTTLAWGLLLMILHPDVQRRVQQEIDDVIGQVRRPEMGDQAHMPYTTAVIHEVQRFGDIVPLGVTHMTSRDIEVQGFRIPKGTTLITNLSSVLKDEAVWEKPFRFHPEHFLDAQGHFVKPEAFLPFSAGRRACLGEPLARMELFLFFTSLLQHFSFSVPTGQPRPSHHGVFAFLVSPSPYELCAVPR

As usually defined, the IC50 is the concentration at which inhibition is half-maximal. High values mean weaker potency, low ones greater potency. What is called inhibition is the relative decrease from the control value, in per cent. As usually defined, the Ki is the equilibrium dissociation constant of an inhibitor or competing ligand from its target. Take `OC(CNCCc1c[nH]c2ccccc12)COc1ccc(Oc2ccccc2)cc1` (centres unmarked) [SERAAK2]: the “PA memory consolidation, latency index” value in the data set on mice [1] is “did not significantly change the latency index; also recorded: no effect on memory consolidation”. The compound further came in with an IC50 on CYP2D6 of 1000 nM. This compound gave an inhibition at 10 µM against CYP2D6 (human) of 90 ± 1%. Further, the FST immobility time entry with mice [2] is listed as “significant decrease in immobility time; also recorded: ↓ immobility (7.5 mg/kg) antidepressant-like effect connected with serotonergic modulation”. Moreover, the “time held on rotating rod” value in the data set on mice [3] (mice, 7.5 mg/kg i.p., 60 min before test, test length 1 min) is recorded as “about 60 s”. In addition, the “Motor coordination (rotarod, chimney)” value in the data set with mice [3] (mice, 7.5 mg/kg) is “inactive; also recorded: no effect”; in the data set with mice [3] (mice, 15–60 mg/kg), “impairment”. In addition, the “motor coordination in the rotarod test” value in the data set on mice [3] (mice, 60, 30 and 15 mg/kg i.p., 60 min before test) is “significant disturbances in motor coordination”. Further, the Ki is 422 ± 74 nM in data set [4] and 914 ± 25 nM on 5-HT7 receptor. Further, the “Elevated plus maze (EPM), open arm time and entries” value with mice [5] (7.5 mg/kg) is “↑ open arm time and entries (7.5 mg/kg)—anxiolytic effect”. For the same compound, the “EPM total number of entries into both open and closed arms” value in the data set with mice [5] (7.5 mg/kg i.p.) is on record as “remained unchanged”. Also, the “EPM percentage of open arm entries” value in the data set on mice [5] (7.5 mg/kg i.p., p < 0.01 vs control) is “significant increase”. The “EPM percentage of time spent in the open arms” value with mice [5] (7.5 mg/kg i.p., p < 0.05 vs control) was “significant increase”.
